Laboratory results taken from patent publication US10883936B2, “Analysis of viable and nonviable cells” (SageMedic Corporation, priority 2018, dated 2021).

Legend:
[1] = test system: ovarian cancer primary tumor cells; assay: Confocal fluorescent microscopy of dyed primary tumor cells, dye combinations and addition sequences (Example 1); assay type: cell-based
Procedure: A 96 round bottom well plate was seeded with a single cell suspension of about 2,500 ovarian cancer primary tumor cells/20 μl/well at day 0. In each well, 80 μl of DMEM/2% alpha serum was added on top to the total volume of 100 μl/well. Dyes were prepared at 2-fold the desired final concentrations on the day of imaging. At day 3, 100 μL of dyeing mix was carefully added to each well to avoid disturbing the cells, to a final 1-fold concentration of dyes. Cells were incubated with dyes at 37° C. For this example, the dyes used were a membrane-permeable fluorescent dye (CYQUANT® GR, Thermo Fisher Scientific, Waltham, Mass.) and a membrane-impermeable fluorescent quenching dye (DRAQ7™, Thermo Fisher Scientific, Waltham, Mass.). The following dye combinations and sequences of dye addition were tested in triplicates, and similar results were seen among the triplicates. FIGS. 1A-1G show exemplary results of the dye combination and addition sequences, as follows.
FIG. 1A is a confocal fluorescent microscopy image of a sample prepared by incubation with the membrane-impermeable fluorescent quenching dye for 30 min followed by addition of the masking agent (Diammonium 5-[(E)-(4-acetamido-2-sulfonatophenyl)diazenyl]-6-amino-4-hydroxy-2-naphthalenesulfonate; CAS Reg. No. 302912-22-7, Thermo Fischer Scientific, Waltham, Mass.) and incubation for an additional 1 h.
FIG. 1B is a confocal fluorescent microscopy image of a sample prepared by incubation with the membrane-impermeable fluorescent quenching dye for 30 min.
FIG. 1C is a confocal fluorescent microscopy image of a sample prepared by incubation with the membrane-impermeable fluorescent quenching dye for 30 min, followed by addition of the membrane-permeable fluorescent dye and incubation for an additional 1 h.
FIG. 1D is a confocal fluorescent microscopy image of a sample prepared by incubation with the membrane-impermeable fluorescent quenching dye for 30 min, followed by addition of the membrane-permeable fluorescent dye and masking reagent and incubation for an additional 1 h.
FIG. 1E is a confocal fluorescent microscopy image of a sample prepared by incubation with the membrane-permeable fluorescent dye alone for 1 h.
FIG. 1F is a confocal fluorescent microscopy image of a sample prepared by incubation with the membrane-permeable fluorescent dye alone for 1 h, followed by addition of the membrane-impermeable fluorescent quenching dye and incubation for an additional 30 min.
FIG. 1G is a confocal fluorescent microscopy image of a sample prepared by incubation with the membrane-permeable fluorescent dye and masking reagent for 1 h, followed by addition of the membrane-impermeable fluorescent quenching dye and incubation for an additional 30 min.

[2] = test system: ovarian cancer primary tumor cells; assay: Dynamic confocal fluorescent microscopy after adding quenching dye to cells pre-dyed with membrane-permeable dye (Example 2); assay type: cell-based; details: for change of fluorescence intensity over time: 0-45 min after addition of quenching dye; for dyeing of the nonviable cells: by 45 min after addition of quenching dye
Procedure: In order to further examine the dyeing behavior and kinetics of the membrane-impermeable fluorescent quenching dye and the membrane-permeable fluorescent dye of Example 1 when mixed together, an additional experiment was performed on day 7 of culture as follows.
On day 7, 20 μL of the membrane-permeable fluorescent dye was added at 6× concentration to each well. The cells were incubated with dye at 37° C. for 1 hour. Confocal fluorescent microscopy was performed after incubation. About 20 μL of the membrane-impermeable fluorescent quenching dye was added directly to the same well on the stage at 6× concentration without disturbing the cells.
Dynamic confocal fluorescent microscopy images were taken of the cells immediately after addition of the membrane-impermeable fluorescent quenching dye (FIG. 2A, 2B), as well as at 5 min (FIG. 2C, 2D), 20 min (FIG. 2E, 2F), 30 min (FIG. 2G, 2H) and 45 min (FIG. 2I, 2J) after addition.

[3] = FIG. 1D: quenching dye 30 min, then membrane-permeable dye and masking reagent, additional 1 h
[4] = FIG. 1G: membrane-permeable dye and masking reagent 1 h, then quenching dye, additional 30 min
[5] = FIG. 1C: quenching dye 30 min, then membrane-permeable dye, additional 1 h
[6] = FIG. 1F: membrane-permeable dye 1 h, then quenching dye, additional 30 min

Row | Compound | signal observed by confocal fluorescent microscopy ([1]; FIG. 1A: quenching dye 30 min, then masking agent, additional 1 h) | signal observed by confocal fluorescent microscopy [1, 3] | signal observed by confocal fluorescent microscopy [1, 4] | signal observed by confocal fluorescent microscopy [1, 5] | signal observed by confocal fluorescent microscopy ([1]; FIG. 1E: membrane-permeable fluorescent dye alone, 1 h, 37° C.) | signal observed by confocal fluorescent microscopy [1, 6] | cells dyed by the dye alone ([1]; dye alone) | change of fluorescence intensity over time [2] | dyeing of the nonviable cells [2] | signal observed by confocal fluorescent microscopy ([1]; FIG. 1B: membrane-impermeable fluorescent quenching dye alone, 30 min, 37° C., day 3) | time after addition of the dye at which the brightest images (fluorescence intensity) were acquired ([2]; day 7, FIG. 2I, 2J) [min] | time after addition at which green cells becoming red is visually noticeable ([2]; day 7, membrane-permeable dye 1 hour at 37° C., then quenching dye added) [min]
1 | CC(=O)Nc1ccc(/N=N/c2c(N)ccc3cc(S(=O)(=O)O)cc(O)c23)c(S(=O)(=O)O)c1.N.N [masking agent, Diammonium 5-[(E)-(4-acetamido-2-sulfonatophenyl)diazenyl]-6-amino-4-hydroxy-2-naphthalenesulfonate] | no signal was observed | No red signal was observed | No red signal was observed |  |  |  |  |  |  |  |  | 
2 | CYQUANT® GR [membrane-permeable fluorescent dye] |  | discrete green signals were observed | discrete green signals were observed | discrete green signals | discrete green signals were observed | discrete green signals | dyed both viable and nonviable cells | significant decrease over time | negligible |  |  | 
3 | DRAQ7™ |  |  |  | discrete red signals were observed |  | discrete red signals were observed |  | increase over time | positive | discrete red signals were observed | 45 | 20 to 30
